Publication PMC10795023, “Structural Optimization and Biological Evaluation of Isoxazolo[5,4-d]pyrimidines as Selective Toll-Like Receptor 7 Agonists” (ACS Omega, 2024)
Read-outs that look alike come from different tables or passages of the source.

Molecular target: T1, hTLR7 (Homo sapiens, UniProt Q9NYK1)
T1 construct: host or cells: HEK293
T1 sequence (Q9NYK1 27-1049): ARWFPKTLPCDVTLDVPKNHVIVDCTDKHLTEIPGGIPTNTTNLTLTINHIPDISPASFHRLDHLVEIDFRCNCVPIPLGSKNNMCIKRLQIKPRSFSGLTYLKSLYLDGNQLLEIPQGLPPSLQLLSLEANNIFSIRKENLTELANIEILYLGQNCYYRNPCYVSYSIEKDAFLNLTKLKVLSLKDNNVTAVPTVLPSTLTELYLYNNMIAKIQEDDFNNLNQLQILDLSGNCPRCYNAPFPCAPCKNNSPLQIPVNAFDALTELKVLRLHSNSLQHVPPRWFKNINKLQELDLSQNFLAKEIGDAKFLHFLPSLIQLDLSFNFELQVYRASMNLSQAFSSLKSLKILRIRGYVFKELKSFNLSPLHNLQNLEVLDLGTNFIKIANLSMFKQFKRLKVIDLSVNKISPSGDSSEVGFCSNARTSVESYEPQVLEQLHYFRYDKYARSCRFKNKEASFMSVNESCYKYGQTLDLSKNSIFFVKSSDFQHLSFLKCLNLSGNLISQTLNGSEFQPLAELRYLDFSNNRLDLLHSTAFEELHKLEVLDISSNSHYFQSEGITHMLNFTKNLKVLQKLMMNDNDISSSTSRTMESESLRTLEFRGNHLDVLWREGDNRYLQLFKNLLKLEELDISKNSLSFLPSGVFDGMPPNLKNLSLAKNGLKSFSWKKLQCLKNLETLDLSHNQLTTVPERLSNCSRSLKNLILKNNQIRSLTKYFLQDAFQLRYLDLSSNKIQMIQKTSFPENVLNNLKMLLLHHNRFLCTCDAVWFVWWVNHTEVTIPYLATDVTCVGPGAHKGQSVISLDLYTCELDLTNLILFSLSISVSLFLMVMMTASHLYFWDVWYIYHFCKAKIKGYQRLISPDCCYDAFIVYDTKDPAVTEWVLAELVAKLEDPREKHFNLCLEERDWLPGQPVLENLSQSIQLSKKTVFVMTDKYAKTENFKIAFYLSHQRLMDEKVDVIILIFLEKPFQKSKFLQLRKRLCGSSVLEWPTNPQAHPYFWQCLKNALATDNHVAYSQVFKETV
Test: TLR7 agonist activity, HEK293 hTLR7 SEAP reporter assay
Assay type: cell-based
Conditions: for EC50: HEK293 cotransfected with hTLR7 and inducible SEAP reporter gene, 24 h treatment, average ± SD of three independent replicates, n.a. = not active; for loss of activity/potency on TLR7 relative to parent compound 21a / plateau / maximum response (efficacy): HEK293-hTLR7 SEAP; for loss of activity/potency on TLR7 relative to parent compound 21a: EC50 compared with 21a; for plateau / maximum response (efficacy): less than twofold increase in maximum response
Experimental: TLR7 agonist activities were determined using the HEK293 cell line, which was cotransfected with the hTLR7 gene and an inducible SEAP reporter gene (InvivoGen, San Diego, California, USA) as described previously.[34] Briefly, cells were seeded in 96-well plates (3 × 10^4 cells/well) and incubated at 5% CO2 and 37 °C. After 24 h, the cells were treated with the solutions of the compounds in DMSO. Imiquimod was used as a PC. The cells were incubated again for 24 h under the same conditions. The activity of SEAP in the supernatant of the cells was measured using the QUANTI-Blue reagent (InvivoGen, San Diego, California, USA), according to the manufacturer's protocol. EC50 values were determined using GraphPad Prism 9.2.0. software (San Diego, California, USA) using the nonlinear regression curve fit and four-parameter logistic equation. All experiments were performed in three independent biological replicates. Values are given as averages from the independent measurements with standard deviations calculated.

Compound	EC50	EC50 (read-out: EC50) [µM]	loss of activity/potency on TLR7 relative to parent compound 21a	plateau / maximum response (efficacy)
CC1CCCN(c2nc(C(F)(F)F)nc3onc(-c4ccccc4)c23)C1 (stereo not shown) [Compound 14a, 4-(3-Methylpiperidin-1-yl)-3-phenyl-6-(trifluoromethyl)isoxazolo[5,4-d]pyrimidine]	inactive			
CC(C)CNc1nc(C(F)(F)F)nc2onc(-c3ccccc3)c12 [Compound 14b, N-Isobutyl-3-phenyl-6-(trifluoromethyl)isoxazolo[5,4-d]pyrimidin-4-amine]	inactive			
CC1CCCN(c2nc(C(F)(F)F)nc3onc(-c4ccc(Cl)cc4)c23)C1 (stereo not shown) [Compound 15a, 3-(4-Chlorophenyl)-4-(3-methylpiperidin-1-yl)-6-(trifluoromethyl)isoxazolo[5,4-d]pyrimidine]		21.4 ± 2.8		
CC(C)CNc1nc(C(F)(F)F)nc2onc(-c3ccc(Cl)cc3)c12 [Compound 15b, 3-(4-Chlorophenyl)-N-isobutyl-6-(trifluoromethyl)isoxazolo[5,4-d]pyrimidin-4-amine]	agonist activity was lost			
CC1CCCN(c2nc(C(F)(F)F)nc3onc(-c4ccc(C(F)(F)F)cc4)c23)C1 (stereo not shown) [Compound 16a, 4-(3-Methylpiperidin-1-yl)-6-(trifluoromethyl)-3-(4-(trifluoromethyl)phenyl)isoxazolo[5,4-d]pyrimidine]		> 150		
CC1CCCN(c2nc(C(F)(F)F)nc3onc(-c4cccc([N+](=O)[O-])c4)c23)C1 (stereo not shown) [Compound 19a, 4-(3-Methylpiperidin-1-yl)-3-(3-nitrophenyl)-6-(trifluoromethyl)isoxazolo[5,4-d]pyrimidine]	did not offer any change in activity			
CC(C)CNc1nc(C(F)(F)F)nc2onc(-c3cccc([N+](=O)[O-])c3)c12 [Compound 19b, N-Isobutyl-3-(3-nitrophenyl)-6-(trifluoromethyl)isoxazolo[5,4-d]pyrimidin-4-amine]	did not offer any change in activity			
CC1CCCN(c2nc(C(F)(F)F)nc3onc(-c4ccc(F)c(Br)c4)c23)C1 (stereo not shown) [Compound 22, 3-(3-Bromo-4-fluorophenyl)-4-(3-methylpiperidin-1-yl)-6-(trifluoromethyl)isoxazolo[5,4-d]pyrimidine]		16.4 ± 0.1		

Further lines, results first:

EC50	EC50 (read-out: EC50) [µM]	loss of activity/potency on TLR7 relative to parent compound 21a	plateau / maximum response (efficacy)	Compound
no activity observed				CC(C)CNc1nc(C(F)(F)F)nc2onc(-c3ccc(F)cc3)c12 [Compound 21b, 3-(4-Fluorophenyl)-N-isobutyl-6-(trifluoromethyl)isoxazolo[5,4-d]pyrimidin-4-amine]
inactive				Fc1ccc(-c2noc3nc(C(F)(F)F)nc(NC4CC4)c23)cc1 [Compound 21c, N-Cyclopropyl-3-(4-fluorophenyl)-6-(trifluoromethyl)isoxazolo[5,4-d]pyrimidin-4-amine]
	63.3 ± 9.8	Approximately 10 fold	low plateau response	CC1CCCCN1c1nc(C(F)(F)F)nc2onc(-c3ccc(F)cc3)c12 (stereo not shown) [Compound 21e, 3-(4-Fluorophenyl)-4-(2-methylpiperidin-1-yl)-6-(trifluoromethyl)isoxazolo[5,4-d]pyrimidine]
	68 ± 8.1	Approximately 10 fold	low plateau response	CC1CCN(c2nc(C(F)(F)F)nc3onc(-c4ccc(F)cc4)c23)CC1 [Compound 21f, 3-(4-Fluorophenyl)-4-(4-methylpiperidin-1-yl)-6-(trifluoromethyl)isoxazolo[5,4-d]pyrimidine]
retained the potency	11 ± 0.1		low plateau response	CC1CN(c2nc(C(F)(F)F)nc3onc(-c4ccc(F)cc4)c23)CCO1 (stereo not shown) [Compound 21g, 3-(4-Fluorophenyl)-4-(2-methylmorpholino)-6-(trifluoromethyl)isoxazolo[5,4-d]pyrimidine]
lacked activity				CC1CN(c2nc(C(F)(F)F)nc3onc(-c4ccc(F)cc4)c23)CCN1 (stereo not shown) [Compound 21h, 3-(4-Fluorophenyl)-4-(3-methylpiperazin-1-yl)-6-(trifluoromethyl)isoxazolo[5,4-d]pyrimidine]
lacked activity	> 150			CN1CCN(c2nc(C(F)(F)F)nc3onc(-c4ccc(F)cc4)c23)CC1 [Compound 21j, 3-(4-Fluorophenyl)-4-(4-methylpiperazin-1-yl)-6-(trifluoromethyl)isoxazolo[5,4-d]pyrimidine]
slightly less potent	24.5 ± 1.6			CC1(C)CCCN(c2nc(C(F)(F)F)nc3onc(-c4ccc(F)cc4)c23)C1 [Compound 21o, 4-(3,3-Dimethylpiperidin-1-yl)-3-(4-fluorophenyl)-6-(trifluoromethyl)isoxazolo[5,4-d]pyrimidine]
slightly less potent	17.5 ± 3			Fc1ccc(-c2noc3nc(C(F)(F)F)nc(N4CCCC5(CC5)C4)c23)cc1 [Compound 21p, 3-(4-Fluorophenyl)-4-(5-azaspiro[2.5]octan-5-yl)-6-(trifluoromethyl)isoxazolo[5,4-d]pyrimidine]
	81.1 ± 7	Approximately 10 fold		CC(C)C1CCCN(c2nc(C(F)(F)F)nc3onc(-c4ccc(F)cc4)c23)C1 (stereo not shown) [Compound 21q, 3-(4-Fluorophenyl)-4-(3-isopropylpiperidin-1-yl)-6-(trifluoromethyl)isoxazolo[5,4-d]pyrimidine]
	> 150			COC1CCN(c2nc(C(F)(F)F)nc3onc(-c4ccc(F)cc4)c23)C1 (stereo not shown) [Compound 21t, 3-(4-Fluorophenyl)-4-(3-methoxypyrrolidin-1-yl)-6-(trifluoromethyl)isoxazolo[5,4-d]pyrimidine]
	> 150			Fc1ccc(-c2noc3nc(C(F)(F)F)nc(N4CCCC4)c23)cc1 [Compound 21v, 3-(4-Fluorophenyl)-4-(pyrrolidin-1-yl)-6-(trifluoromethyl)isoxazolo[5,4-d]pyrimidine]
retained its activity	15.9 ± 0.9		low plateau response	CC1CCCC(c2nc(C(F)(F)F)nc3onc(-c4ccc(F)cc4)c23)C1 (stereo not shown) [Compound 21y, 3-(4-Fluorophenyl)-4-(3-methylcyclohexyl)-6-(trifluoromethyl)isoxazolo[5,4-d]pyrimidine]
	19.9 ± 3.1			CC1CCCN(c2nc(C(F)(F)F)nc3onc(Cc4ccc(F)c(F)c4)c23)C1 (stereo not shown) [Compound 23a, 3-(3,4-Difluorobenzyl)-4-(3-methylpiperidin-1-yl)-6-(trifluoromethyl)isoxazolo[5,4-d]pyrimidine]
